From US9549958B2, “Extracts of Cynanchum sp. and active ingredients contained therein in use of arthritis treatment” (INDUSTRIAL TECHNOLOGY RESEARCH INSTITUTE, priority 2011, dated 2017) come the findings set out here.

One data set has as its system TNF-α. The data set is described as follows: TNF-α inhibition in LPS-stimulated activated U937 cells (ELISA). The data set is classed as cell-based. The conditions noted are these: Homo sapiens, U-937, Example 3. The procedure: A human myeloid leukemia cell line U937 (Rockville, Md.) was obtained from ATCC. The cell line was cultured in a RPMI 1640 medium with a 10% fetal calf serum (FCS) at 37° C., 5% CO2. The cell line maintained in exponential growth. For inducing differentiation, the cells with a starting concentration of 4×10^5 cell/ml were cultured in T150 containing 50 ng/ml PMA (Sigma) for 24 hours. Subsequently, the cells were moved to a fresh medium without PMA and cultured for 48 hours. The cells were collected with rubber policeman (Bellco Glass, Vineland, N.J.) gently scraping the medium bottle for the next step.
The activated U937 cells were seeded into a 96-well plate to form a concentration of 1.6×10^5 cell/well. The ethanol extracts of Cynanchum hancockianum in different concentrations were respectively added 10 μl to the 96-well plate. The final volume of each well was 190 μl. The plate was cultured at 37° C., 5% CO2 for 30 min. Then each well was added 2 μg/ml of lipopolysaccharide (LPS) in PBS 10 μl and cultured at 37° C. for 4 hours. […] The amount of TNF-α was analyzed by an ELISA (TNF-α duoset, R&D, Minneapolis, Minn.). […]
The activated U937 cells obtained from Example 2 were seeded into a 96-well plate to form a concentration of 1.6×10^5 cell/well. […] The amount of TNF-α was analyzed by an ELISA and cell viability was tested by MTT. […]

For data set [1], the system named is collagen-induced arthritis model. Briefly: Collagen-induced arthritis model, morbidity and onset. The data set is classed as in vivo, rat. The procedure:
(§1) 50 μg of a fetus bovine type II collagen (CII, Chondrex) was emulsified in a complete Freund's adjuvant (CFA, Sigma). The ankle volume was measured as the basis of a hindpaw volume. On the eighth day after the primary immune, each rat was injected with 100 μg of the collagen emulsified in IFA (Sigma) to induce arthritis. The carrier control group was i.p. injected with 2 ml/kg of 0.5% CMC rats every two days until day 21. The experimental group was […] antofine isolated from Example 1 according to the following regimes: Group 1 was i.p. injected with 3 mg/kg of antofine every two days until Day 20 and then i.p. injected with 3 mg/kg of antofine per day on Day 21˜23; Group 2 was i.p. injected with 3 mg/kg of antofine every three days until Day 20 and then i.p. injected with 3 mg/kg of antofine per day on Day 21˜23; Group 3 was i.p. injected with 2 mg/kg of antofine every two days until Day 20 and then i.p. injected with 3 mg/kg of antofine per day on Day 21˜23; Group 4 was i.p. injected with 3 mg/kg of antofine per day for 5 days, and then stop administration on the next nine days, and i.p. injected with 3 mg/kg of antofine per day on Day 21˜23.; and All rats were scarified on Day 24.

The nature of data set [2]: Weight changes in collagen-induced arthritis model. The data set is classed as in vivo, rat. The settings on record: various doses of antofine and regimes (Groups 1-4), i.p., rats. The procedure: as §1

≈ marks a conversion by molar mass, not a printed value.

In general, IC50 refers to the concentration that inhibits the measured activity by half. The low end stands for greater potency in that assay, the high end for weaker potency in that assay. As to `COc1ccc2c3c(c4cc(OC)c(OC)cc4c2c1)C[C@H]1CCCN1C3` [antofine, (−)-antofine], the IC50 in the data set on TNF-α came to 7 ng/mL (≈ 0.0193 µM). The “Morbidities and onset of arthritis” value in data set [1] (Group 1: 3 mg/kg i.p. every two days until Day 20, then 3 mg/kg per day on Day 21-23) is “decreased morbidities and delayed onsets”; in data set [1] (Group 4: 3 mg/kg i.p. per day for 5 days, stop nine days, 3 mg/kg per day on Day 21-23), “decreased morbidities and delayed onsets”. In addition, the Weight changes entry in data set [2] was “not greatly changed”.
